These results are taken from patent publication US5633233A, “Modified kojibiosides analogues” (priority 1995, dated 1997).

Where two headings read alike, the source gives them in different places.

One test deals with α-glucosidase. The conditions noted are these: cited from earlier work.
The target in a further test is T1, glucosidase I (Bos taurus, UniProt A0A3Q1M9D9).
T1 construct: Glucosidase I was solubilized from calf pancreas microsomes; from tissue; host or cells: calf pancreas microsomes
T1 sequence (A0A3Q1M9D9 1-839): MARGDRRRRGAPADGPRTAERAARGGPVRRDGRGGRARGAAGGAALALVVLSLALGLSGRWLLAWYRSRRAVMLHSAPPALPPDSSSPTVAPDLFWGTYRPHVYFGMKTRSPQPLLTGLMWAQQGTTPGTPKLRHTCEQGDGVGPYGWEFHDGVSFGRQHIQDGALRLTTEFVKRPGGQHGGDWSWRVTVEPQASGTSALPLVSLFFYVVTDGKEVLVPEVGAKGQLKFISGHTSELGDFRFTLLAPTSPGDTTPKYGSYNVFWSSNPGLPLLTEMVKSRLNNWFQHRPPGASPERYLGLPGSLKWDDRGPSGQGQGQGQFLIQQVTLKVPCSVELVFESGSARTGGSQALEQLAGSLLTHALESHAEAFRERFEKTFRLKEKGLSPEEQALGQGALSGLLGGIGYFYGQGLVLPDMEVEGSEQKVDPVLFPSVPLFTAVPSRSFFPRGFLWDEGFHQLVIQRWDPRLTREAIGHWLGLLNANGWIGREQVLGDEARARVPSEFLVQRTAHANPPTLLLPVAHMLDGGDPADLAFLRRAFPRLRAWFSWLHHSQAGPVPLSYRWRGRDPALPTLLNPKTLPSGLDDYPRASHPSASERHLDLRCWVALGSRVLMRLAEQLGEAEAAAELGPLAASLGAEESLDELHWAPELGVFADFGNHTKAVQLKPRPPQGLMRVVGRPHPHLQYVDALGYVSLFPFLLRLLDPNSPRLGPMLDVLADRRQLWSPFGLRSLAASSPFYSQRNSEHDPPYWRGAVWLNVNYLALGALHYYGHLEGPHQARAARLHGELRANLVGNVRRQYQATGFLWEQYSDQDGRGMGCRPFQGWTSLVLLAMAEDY
Kind of test: Assay for glucosidase I activity (14C-Glc3Man9GlcNAc2 substrate, ConA-Sepharose, scintillation counting). The test is classed as biochemical, calf. The conditions noted are these: 1 mM concentration. The method, then: Some of the compounds described herein were evaluated as inhibitors of glucosidase I activity. Glucosidase I was purified by a literature procedure as follows. To prepare an affinity matrix, carboxypentyl-deoxynojirimycin was coupled with Affigel 102 according to Shailubhai et al^51. Glucosidase I was solubilized from calf pancreas microsomes, and purified from glucosidase II activity by affinity chromatography according to the same authors.
Substrates for Assay of Glucosidase I ^14 C-labelled Glc3 Man9 GlcNAc2 -PP-Dol was prepared by the incubation of UDP-[^14 C]Glc with calf pancreas microsomes as described by Herscovien et al^52. Glc3 Man9 GlcNAc2 was released by mild acid hydrolysis and purified by BioGel P4 chromatography.
Assay for Glucosidase I Activity
Affinity purified glucosidase I was assayed as described by Saunier et al.^53 by adsorption of undigested substrate […] to ConA-Sepharose and scintillation counting of [^14 C]Glc in the column eluent. Oligosaccharides as potential inhibitors were evaluated using castanospermine as a baseline inhibitor.

The subject of test [1] is α-glucosidase I from rat liver microsomes. The conditions noted are these: cited from earlier work.
Test [2] concerns α-glucosidase I from bovine mammary gland. The conditions noted are these: cited from earlier work.
For test [3], the system named is α-glucosidase I from yeast microsomal preparation. The conditions noted are these: cited from earlier work.
For test [4], the system named is α-glucosidase I from mung bean seedlings. The note with it: cited from earlier work.
Setting [5] is: affinity purified glucosidase I from calf pancreas microsomes, read-out: inhibition of glucosidase I activity.

Turning to `C[C@H]1O[C@H](O[C@H]2[C@H](O)[C@@H](O)[C@@H](O[C@H]3[C@H](O)[C@@H](O)C(O)O[C@@H]3CO)O[C@@H]2CO)[C@H](O)[C@@H](O)[C@@H]1N[C@H]1C=C(CO)[C@@H](O)[C@H](O)[C@H]1O` (stereo partly drawn) [acarbose], the α-glucosidase inhibition entry in the test with α-glucosidase was “potent”.

For the compound `COC(=O)CCCCCCCCO[C@H]1O[C@H](CO)[C@@H](O)[C@H](O)[C@H]1O[C@H]1O[C@H](CO)[C@@H](O)[C@H](O)[C@H]1O` [compound 44, 8-Methoxycarbonyloctyl 2-O-(α-D-glucopyranosyl)-α-D-glucopyranoside], the inhibition (as a rule, how much of the control response was suppressed) at 1000 µM at glucosidase I (setting [5]) turned out to be 20%.

Regarding `OC[C@H]1O[C@H](O[C@H]2C(O)O[C@H](CO)[C@@H](O)[C@@H]2O)[C@H](O)[C@@H](O)[C@@H]1O` (stereo partly drawn) [Kojibiose], the “inhibition of α-glucosidase I” value in test [1], in test [2], in test [3] and in test [4] was “inhibited” each time.

On to `COC(=O)CCCCCCCCO[C@H]1O[C@H](CN)[C@@H](O)[C@H](O)[C@H]1O[C@H]1O[C@H](CO)[C@@H](O)[C@H](O)[C@H]1O` [compound 57, 8-Methoxycarbonyloctyl 6-amino-6-deoxy-2-O-(α-D-glucopyranosyl)-α-D-glucopyranoside], for which the inhibition at 1000 µM on glucosidase I (versus known compound 44, read-out: increase in inhibition activity relative to compound 44) was 70%; at glucosidase I (setting [5]), 34%.

In the case of `C[C@H]1O[C@H](O[C@H]2[C@H](O)[C@@H](O)[C@@H](O[C@H]3[C@H](O)[C@@H](O)[C@@H](O)O[C@@H]3CO)O[C@@H]2CO)[C@H](O)[C@@H](O)[C@@H]1N[C@H]1C[C@H](CO)[C@@H](O)[C@H](O)[C@H]1O` [dihydroacarbose], the α-glucosidase inhibition entry with α-glucosidase is “potent”.
